According to the supplement of paper PMC8967900:

Legend:
Test in all cases: selective drug sensitivity score (sDSS, relative to normal bone marrow) (sDSS (score)); higher = more potent and effective on the cell line relative to normal bone marrow cells
Settings in all cases: 72 h
[1] = system: 380
[2] = system: ALL-SIL
[3] = system: CCRF-CEM
[4] = system: CCRF-HSB2
[5] = system: COG-LL-394h
[6] = system: DND-41
[7] = system: HAL-01
[8] = system: KARPAS-45
[9] = system: KASUMI-10
[10] = system: KOPN-8
[11] = system: LC4-1
[12] = system: MHH-CALL-2
[13] = system: MHH-CALL-3
[14] = system: MHH-CALL-4
[15] = system: NALL-1
[16] = system: P12-ICHIKAWA
[17] = system: P30-OHKUBO
[18] = system: PF-382
[19] = system: REH
[20] = system: SEM cells
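Also: ALL cell lines in 384-well plates, five doses spanning 10,000-fold, each plate scaled between vehicle and 100 µmol/L benzalkonium chloride controls, sDSS an adapted area-under-curve metric.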

| Compound | selective drug sensitivity score [1] | selective drug sensitivity score [2] | selective drug sensitivity score [3] | selective drug sensitivity score [4] | selective drug sensitivity score [5] | selective drug sensitivity score [6] | selective drug sensitivity score [7] | selective drug sensitivity score [8] | selective drug sensitivity score [9] | selective drug sensitivity score [10] | selective drug sensitivity score [11] | selective drug sensitivity score [12] | selective drug sensitivity score [13] | selective drug sensitivity score [14] | selective drug sensitivity score [15] | selective drug sensitivity score [16] | selective drug sensitivity score [17] | selective drug sensitivity score [18] | selective drug sensitivity score [19] | selective drug sensitivity score [20] |
| --- | --- | --- | --- | --- | --- | --- | --- | --- | --- | --- | --- | --- | --- | --- | --- | --- | --- | --- | --- | --- |
| CCNC(=O)CCC/C=C\C[C@@H]1[C@@H](/C=C/[C@@H](O)CCc2ccccc2)[C@H](O)C[C@@H]1O [Bimatoprost] (top concentration 5500 nM) | 0 | 0 | 0 | 0 | 0 | 5.6 | 0 | 0 | 0 | 0 | 0 | 0 | 0 | 0.5 | 0 | 0 | 0 | 0 | 1.4 | 0 |
| CC#CC(=O)N1CCC[C@H]1c1nc(-c2ccc(C(=O)Nc3ccccn3)cc2)c2c(N)nccn12 [Acalabrutinib] (top concentration 1000 nM) | 9.6 | -0.1 | 0.8 | -0.1 | -0.1 | -0.1 | 7.2 | 0.7 | 1.8 | -0.1 | -0.1 | 9 | 0 | 7.4 | -0.1 | -0.1 | 1.3 | 0 | -0.1 | 3.2 |
| COc1cc(N2CCC(N3CCN(C)CC3)CC2)ccc1Nc1ncnc(Nc2ccccc2S(=O)(=O)C(C)C)n1 [ASP3026] (top concentration 10000 nM) | -2.74 | 0.16 | -0.14 | 5.06 | 2.36 | 0.56 | 1.76 | 0.56 | 2.86 | -2.64 | -0.44 | -0.84 | -4.04 | -3.94 | -2.64 | -1.44 | -1.04 | -0.04 | 3.26 | 1.66 |
| CCCOc1ccn2c(C(C)=O)cc(-c3ccccc3S(C)(=O)=O)c2c1 [GSK2801] (top concentration 10000 nM) | 3.44 | -0.36 | -0.26 | -0.36 | -0.16 | -0.26 | -0.36 | 0.44 | -0.36 | 1.94 | 0.24 | -0.16 | -0.36 | -0.36 | -0.36 | -0.16 | -0.36 | 0.54 | -0.36 | -0.36 |
| Nc1cc(COc2c(Cl)cc(C[C@H](N)C(=O)O)cc2Cl)c2oc(-c3ccccc3)nc2c1 [JPH203] (top concentration 5000 nM) | 1.2 | 0 | 0 | 0 | 0 | 0 | 0.4 | 0 | 0.2 | 0 | 0 | 0 | 0 | 1.2 | 0 | 0 | 2.2 | 0 | 0.2 | 0 |
| Nc1nc(N)c2nc(-c3cccc(O)c3)c(-c3cccc(O)c3)nc2n1 [TG100-115] (top concentration 10000 nM) | 2.1 | 0.7 | 0.4 | 3.9 | -0.4 | 0.1 | 3.2 | 0.8 | 0.1 | 2.7 | 0.1 | 5.2 | -0.4 | -0.4 | 4.6 | -0.3 | 3.6 | -0.2 | 5.1 | 0.7 |
| Cc1cccc(-c2nn3c(c2-c2ccnc4ccc(C(N)=O)cc24)CCC3)n1 [Galunisertib] (top concentration 1000 nM) | 0 | 0 | 0 | 0 | 0 | 0 | 1.6 | 0 | 0 | 0 | 0 | 8.5 | 0 | 0 | 0 | 0 | 2.9 | 0 | 0 | 0.1 |
| CNC(=O)c1cccc2cc(Oc3ccnc4cc(OCC5(N)CC5)c(OC)cc34)ccc12 [Lucitanib] (top concentration 10000 nM) | 1.18 | 4.88 | 3.08 | 3.88 | 1.58 | 5.08 | 3.88 | 3.18 | 5.18 | 6.38 | 1.68 | 4.18 | -0.62 | -0.62 | 0.58 | 1.28 | 5.88 | 1.38 | 6.88 | 4.98 |
| COc1cc2ncnc(Nc3cccc(Cl)c3F)c2cc1OC(=O)N1CCN(C)C[C@H]1C [AZD3759] (top concentration 1000 nM) | -0.04 | 5.76 | -0.04 | -0.04 | -0.04 | -0.04 | -0.04 | -0.04 | -0.04 | -0.04 | -0.04 | 1.56 | -0.04 | -0.04 | 0.86 | -0.04 | -0.04 | -0.04 | 0.66 | -0.04 |
| CCn1cc(-c2ccnc3[nH]c(-c4cccc(CN(C)C)c4)cc23)c(-c2ccc(NC(=O)N(C)C)cc2)n1 (top concentration 1000 nM) | 19 | 21.3 | 18 | 15.5 | 0.36 | -0.84 | 1.46 | 24.1 | 9.86 | 11.2 | 23.4 | 6.66 | 2.06 | 7.46 | 13.1 | 15.4 | 26.6 | 9.26 | 19.3 | 17.9 |
| Cc1cc(F)c(C(=O)Nc2cccc(-c3nncn3C(C)C)n2)cc1-n1cnc(C2CC2)c1 [Selonsertib] (top concentration 1000 nM) | 1 | 0 | 0 | 0 | 0 | 0 | 6.6 | 0 | 0 | 0 | 0 | 11.5 | 0 | 0.2 | 0 | 0 | 0.9 | 0 | 0 | 0 |
| O=C1CN2Cc3c(ccc(Cl)c3Cl)N=C2N1 [Anagrelide] (top concentration 10000 nM) | 0.1 | 2.8 | 0 | 0 | 0 | 0 | 0 | 0 | 0 | 3.4 | 0 | 1.5 | 0 | 0.6 | 1.1 | 0 | 0 | 0 | 0 | 0 |
| Oc1ncnc2[nH]ncc12 [Allopurinol] (top concentration 10000 nM) | -0.64 | -0.14 | -0.24 | -0.64 | -0.64 | -0.64 | -0.64 | -0.24 | -0.64 | -0.64 | 0.06 | -0.64 | -0.64 | -0.64 | -0.64 | -0.64 | 0.96 | -0.64 | -0.64 | -0.54 |
| CC1(C)CNc2cc(NC(=O)c3cccnc3NCc3ccncc3)ccc21 [Motesanib] (top concentration 10000 nM) | -0.22 | -0.22 | -0.22 | 1.08 | 0.78 | -0.22 | -0.22 | -0.22 | -0.22 | -0.22 | -0.22 | -0.22 | -0.22 | -0.22 | -0.22 | -0.22 | -0.22 | -0.22 | -0.22 | -0.22 |
| Cc1c(Cn2c(C)nc3c(C(=O)O)cc(N4CCOCC4)cc32)cccc1C(F)(F)F (top concentration 10000 nM) | -0.02 | -0.02 | 0.38 | -0.02 | -0.02 | 1.78 | 9.28 | 0.08 | -0.02 | 0.38 | -0.02 | 0.58 | -0.02 | 0.58 | 0.68 | -0.02 | 2.38 | -0.02 | 0.68 | 0.58 |
| Cc1cc(-c2ncc(CC(=O)Nc3ccc(-c4cnccn4)cn3)cc2C)ccn1 [NVP-LGK974] (top concentration 10000 nM) | 1 | 0 | -0.5 | 0.5 | 6.2 | 1.3 | -0.8 | 4.6 | 0.8 | 2.6 | 1.2 | 1.9 | 2 | 3.5 | 1.5 | 3.2 | 2.1 | 2.7 | 4 | 2.2 |
| CC1=C2C[C@H]3[C@@H](CC[C@@H]4C[C@H](NS(C)(=O)=O)CC[C@@]43C)[C@@H]2CC[C@@]2(C1)O[C@@H]1C[C@H](C)CN[C@H]1[C@H]2C [Saridegib] (top concentration 10000 nM) | -0.96 | -1.16 | -0.46 | 0.24 | 5.34 | 4.74 | 1.14 | 3.44 | -1.16 | -1.16 | 0.54 | 3.14 | 0.34 | 3.14 | -0.26 | -0.06 | -0.66 | 0.34 | -1.16 | -1.16 |
| Cn1cc(C[C@@H](N)C(=O)O)c2ccccc21 [1-methyl-D-tryptophan] (top concentration 5000 nM) | -0.02 | -0.62 | -0.62 | -0.62 | -0.62 | -0.62 | 0.58 | -0.62 | -0.62 | 1.18 | -0.62 | 2.28 | 1.48 | -0.62 | -0.62 | -0.62 | 0.58 | -0.62 | 3.68 | -0.32 |
